For 22 compounds, IC50 results are on record in patent US8772504B2, “Substituted benzoxazole, benzimidazole, oxazolopyridine and imidazopyridine derivatives as gamma secretase modulators” (Janssen Pharmaceuticals, Inc., priority 2009, dated 2014).

Format in all cases: cell-based
For test [1], the system named is Aβtotal. The experiment in a line: Screening for γ-secretase-modulating activity, Method 1: Aβtotal sandwich ELISA on SKNBE2 cell media. The settings on record: SKNBE2 cells carrying APP 695 wild type. On the procedure:
(§1) Screening was carried out using SKNBE2 cells carrying the APP 695—wild type, grown in Dulbecco's Modified Eagle's Medium/Nutrient mixture F-12 (DMEM/NUT-mix F-12) (HAM) provided by Gibco (cat no. 31330-38) containing 5% Serum/Fe supplemented with 1% non-essential amino acids. Cells were grown to near confluency.
(§2) The screening was performed using the assay as described in Citron et al (1997) Nature Medicine 3: 67. Briefly, cells were plated in a 96-well plate at about 10^5 cells/ml one day prior to addition of compounds. Compounds were added to the cells in Ultraculture (Lonza, BE12-725F) supplemented with 1% glutamine (Invitrogen, 25030-024) for 18 hours. The media were assayed by two sandwich ELISAs, for Aβ42 and Aβtotal. Toxicity of the compounds was assayed by WST-1 cell proliferation reagent (Roche, 1 644 807) according to the manufacturer's protocol.
To quantify the amount of Aβtotal in the cell supernatant, samples and standards were added to a 6E10-coated plate. The plate was allowed to incubate overnight at 4° C. in order to allow formation of the antibody-amyloid complex. Following this incubation and subsequent wash steps a selective anti-Aβ-antibody conjugate (biotinylated 4G8) was added and incubated for a minimum of 1 hour in order to allow formation of the antibody-Amyloid-antibody-complex. After incubation and appropriate wash steps, a Streptavidine-Peroxidase-Conjugate was added, followed 30 minutes later by an addition of Quanta Blu fluorogenic peroxidase substrate according to the manufacturer's instructions (Pierce Corp., Rockford, Ill.).
(§3) To obtain the values reported in Table 3a, the sigmoidal dose response curves were analysed by computerised curve-fitting, with percent of inhibition plotted against compound concentration. A 4-parameter equation (model 205) in XLfit was used to determine the IC50. The top and the bottom of the curve were fixed to 100 and 0, respectively, and the hill slope was fixed to 1. The IC50 represents the concentration of a compound that is required for inhibiting a biological effect by 50% (Here, it is the concentration where Aβ peptide level is reduced by 50%).
(§4) To obtain the values reported in Table 3b, the data were calculated as percentage of the maximum amount of amyloid Beta 42 measured in the absence of the test compound. The sigmoidal dose response curves were analyzed using non-linear regression analysis with percentage of the control plotted against the log concentration of the compound. A 4-parameter equation was used to determine the IC50. The values reported in Table 3b are averaged IC50 values.
A general note: An ELISA detects its analyte on a solid surface through an enzyme-linked reagent.

Test [2] has as its system Aβ42. Description: Screening for γ-secretase-modulating activity, Method 2: Aβ42 Alphalisa on SKNBE2 cell supernatant. The settings on record: Method 2, Table 3c, SKNBE2 cells carrying APP 695 wild type, overnight incubation. Here is the method: (§5) Screening was carried out using SKNBE2 cells carrying the APP 695—wild type, grown in Dulbecco's Modified Eagle's Medium/Nutrient mixture F-12 (DMEM/NUT-mix F-12) (HAM) provided by Invitrogen (cat no. 10371-029) containing 5% Serum/Fe supplemented with 1% non-essential amino acids, 1-glutamine 2 mM, Hepes 15 mM, penicillin 50 U/ml (units/ml) en streptomycin 50 μg/ml. Cells were grown to near confluency.
(§6) The screening was performed using a modification of the assay as described in Citron et al (1997) Nature Medicine 3: 67. Briefly, cells were plated in a 384-well plate at 10^4 cells/well in Ultraculture (Lonza, BE12-725F) supplemented with 1% glutamine (Invitrogen, 25030-024), 1% non-essential amino acid (NEAA), penicillin 50 U/ml en streptomycin 50 μg/ml in the presence of test compound at different test concentrations. The cell/compound mixture was incubated overnight at 37° C., 5% CO2. The next day the media were assayed by two sandwich immuno-assays, for Aβ42 and Aβtotal.
(§7) Aβtotal and Aβ42 concentrations were quantified in the cell supernatant using the Aphalisa technology (Perkin Elmer). Alphalisa is a sandwich assay using biotinylated antibody attached to streptavidin coated donorbeads and antibody conjugated to acceptor beads. In the presence of antigen, the beads come into close proximity. The excitation of the donor beads provokes the release of singlet oxygen molecules that trigger a cascade of energy transfer in the acceptor beads, resulting in light emission. To quantify the amount of Aβ42 in the cell supernatant, monoclonal antibody specific to the C-terminus of Aβ42 (JRF/cAβ42/26) was coupled to the receptor beads and biotinylated antibody specific to the N-terminus of Aβ (JRF/AβN/25) was used to react with the donor beads. To quantify the amount of Aβtotal in the cell supernatant, monoclonal antibody specific to the N-terminus of Aβ (JRF/AβN/25) was coupled to the receptor beads and biotinylated antibody specific to the mid region of Aβ (biotinylated 4G8) was used to react with the donor beads.
(§8) To obtain the values reported in Table 3c, the data were calculated as percentage of the maximum amount of amyloid Beta 42 measured in the absence of the test compound. The sigmoidal dose response curves were analyzed using non-linear regression analysis with percentage of the control plotted against the log concentration of the compound. A 4-parameter equation was used to determine the IC50.
On the technique in general: Bead proximity is the source of the signal in Alpha formats.

In test [3] the test system is Aβ42. The experiment in a line: Screening for γ-secretase-modulating activity, Method 1: Aβ42 sandwich ELISA on SKNBE2 cell media. The settings on record: SKNBE2 cells carrying APP 695 wild type. On the procedure:
as §1, §2
To quantify the amount of Aβ42 in the cell supernatant, commercially available Enzyme-Linked-Immunosorbent-Assay (ELISA) kits were used (Innotest® β-Amyloid(1-42), Innogenetics N.V., Ghent, Belgium). The Aβ42 ELISA was performed essentially according to the manufacturer's protocol. Briefly, the standards (dilutions of synthetic Aβ1-42) were prepared in polypropylene Eppendorf with final concentrations of 8000 down to 3.9 pg/ml (1/2 dilution step). Samples, standards and blanks (100 μl) were added to the anti-Aβ42-coated plate supplied with the kit (the capture antibody selectively recognizes the C-terminal end of the antigen). The plate was allowed to incubate 3 h at 25° C. in order to allow formation of the antibody-amyloid complex. Following this incubation and subsequent wash steps a selective anti-Aβ-antibody conjugate (biotinylated 3D6) was added and incubated for a minimum of 1 hour in order to allow formation of the antibody-Amyloid-antibody-complex. After incubation and appropriate wash steps, a Streptavidine-Peroxidase-Conjugate was added, followed 30 minutes later by an addition of 3,3′,5,5′-tetramethylbenzidine (TMB)/peroxide mixture, resulting in the conversion of the substrate into a coloured product. This reaction was stopped by the addition of sulfuric acid (0.9 N) and the colour intensity was measured by means of photometry with an ELISA-reader with a 450 nm filter.
as §3, §4

Test [4] concerns Aβtotal. Description: Screening for γ-secretase-modulating activity, Method 2: Aβtotal Alphalisa on SKNBE2 cell supernatant. The settings on record: Method 2, Table 3c, SKNBE2 cells carrying APP 695 wild type, overnight incubation. Here is the method:
as §5, §6, §7, §8

[5] abbreviates: Homo sapiens, Table 3a, 18 hours, XLfit, top/bottom fixed to 100 and 0, hill slope 1.
Setting [6] is: Homo sapiens, Table 3b, non-linear regression of % of control, averaged IC50 values.
Where [7] appears, read: Table 3a, 18 hours, XLfit, top/bottom fixed to 100 and 0, hill slope 1.
The mark [8] stands for this setting: Table 3b, non-linear regression of % of control, averaged IC50 values.

Usually IC50 stands for the concentration at which inhibition is half-maximal. Read a low IC50 as greater potency.

In the case of `COc1cc(Nc2cccc3c2nc(-c2ccc(F)cc2)n3C(C)C)ccc1-n1cnc(C)c1` [Compound 2], the concentration for half-maximal inhibition (IC50) was more than 1000 nM in the test with Aβtotal [1] (setting [5]); more than 1000 nM with Aβtotal [1] (setting [6]); 9 nM with Aβ42 [2] (Homo sapiens); 12 nM in the test on Aβ42 [3] (setting [5]); 12 nM in the test with Aβ42 [3] (setting [6]); 9330 nM with Aβtotal [4] (Homo sapiens).
For `COc1cc(Nc2cccc3c2nc(CC2CCNCC2)n3C)ccc1-n1cnc(C)c1` [Compound 9], the half-inhibitory concentration (IC50) in the test with Aβtotal [1] (setting [5]) is more than 3000 nM; with Aβtotal [1] (setting [6]), more than 3000 nM; in the test with Aβ42 [2] (Homo sapiens), more than 3000 nM; in the test on Aβ42 [3] (setting [5]) it was 600 nM; in the test on Aβ42 [3] (setting [6]), 603 nM; with Aβtotal [4] (Homo sapiens), more than 3000 nM.
On to `Cc1ncn(-c2ccc(Nc3cccc4c3nc(C)n4C(C)C)cc2)n1` [Compound 20], for which the IC50 in the test on Aβtotal [1] (setting [7]), in the test with Aβtotal [1] (setting [8]), in the test on Aβ42 [2], with Aβ42 [3] (setting [7]), in the test with Aβ42 [3] (setting [8]) and with Aβtotal [4] was more than 3000 nM each time.
Regarding `COc1cc(Nc2cccc3c2nc(C)n3Cc2ccccc2)ccc1-n1cnc(C)c1` [Compound 22], the IC50 was more than 3000 nM in the test with Aβtotal [1] (setting [7]); more than 3000 nM with Aβtotal [1] (setting [8]); 151 nM in the test with Aβ42 [2]; less than 110 nM in the test with Aβ42 [3] (setting [7]); less than 110 nM in the test with Aβ42 [3] (setting [8]); more than 10000 nM in the test on Aβtotal [4].
Turning to `Cc1ncn(-c2ccc(Nc3cccc4c3nc(C)n4Cc3ccccc3)cc2)n1` [Compound 23], the IC50 with Aβtotal [1] (setting [7]) is more than 10000 nM; in the test on Aβtotal [1] (setting [8]) it was more than 10000 nM; with Aβ42 [2] it was more than 3000 nM; in the test with Aβ42 [3] (setting [7]), 1910 nM; in the test on Aβ42 [3] (setting [8]) it was 1860 nM; in the test on Aβtotal [4] it was more than 3000 nM.
For `COc1cc(Nc2cccc3c2nc(SCC(C)C)n3C)ccc1-n1cnc(C)c1` [Compound 33], the IC50 with Aβtotal [1] (setting [7]) is more than 3000 nM; with Aβtotal [1] (setting [8]), more than 3000 nM; in the test with Aβ42 [2], 245 nM; with Aβ42 [3] (setting [7]) it was less than 110 nM; in the test with Aβ42 [3] (setting [8]), less than 110 nM; with Aβtotal [4] it was more than 10000 nM.
Take `CCn1c(CCC(F)(F)F)nc2c(Nc3ccc(-n4cnc(C)c4)c(OC)c3)cccc21` [Compound 35]: the IC50 in the test with Aβtotal [1] (setting [7]) was more than 1000 nM; with Aβtotal [1] (setting [8]), more than 10000 nM; in the test on Aβ42 [2] it was 60 nM; with Aβ42 [3] (setting [7]), 24 nM; in the test on Aβ42 [3] (setting [8]) it was 22 nM; in the test on Aβtotal [4], more than 10000 nM.
Take `COc1cc(Nc2cccc3oc(C4CCN(C)CC4)nc23)ccc1-n1cnc(C)c1` [Compound 40]: the 50% inhibitory concentration (IC50) in the test with Aβtotal [1] (setting [7]) is more than 3000 nM; with Aβtotal [1] (setting [8]), more than 3000 nM; with Aβ42 [2], more than 3000 nM; in the test on Aβ42 [3] (setting [7]) it was 1950 nM; in the test on Aβ42 [3] (setting [8]), 1950 nM; with Aβtotal [4], more than 3000 nM.
With `Cc1ncn(-c2ccc(Nc3cc(C(F)(F)F)cc4c3nc(-c3ccc(F)cc3)n4C)cc2)n1` [Compound 69], the IC50 in the test on Aβ42 [2] is 417 nM; in the test on Aβ42 [3] (setting [7]), 106 nM; in the test with Aβ42 [3] (setting [8]), 117 nM; with Aβtotal [4], more than 10000 nM.
For `COc1cc(Nc2nccc3c2nc(CC2CC2)n3C)ccc1-n1ncnc1C` [Compound 101], in that order: 5890 nM, more than 3000 nM, more than 3000 nM and more than 10000 nM.
As for `Cc1ncn(-c2ccc(Nc3cccc4c3nc(-c3ccc(F)cc3)n4C)cc2)n1` [Compound 103], the IC50 was 102 nM in the test with Aβ42 [2], 87 nM in the test with Aβ42 [3] (setting [7]), 89 nM in the test with Aβ42 [3] (setting [8]) and more than 10000 nM in the test on Aβtotal [4].
As to `COc1nc(Nc2cccc3c2nc(-c2ccc(F)cc2)n3C(C)C)ccc1-n1cnc(C)c1` [Compound 116], the IC50 was 4 nM in the test on Aβ42 [2], 10 nM with Aβ42 [3] (setting [8]) and 6610 nM in the test on Aβtotal [4].
For `COc1cc(Nc2cccc3c2nc(C2CCOCC2)n3C(C)C)ccc1-n1cnc(C)n1` [Compound 120], in that order: 9770 nM, more than 3000 nM and more than 10000 nM.
For `Cc1ncn(-c2ccc(Nc3nccc4c3nc(-c3ccc(F)cc3F)n4C)c(F)c2)n1` [Compound 129], in that order: more than 10000 nM, more than 3000 nM and more than 10000 nM.
On to `COc1nc(Nc2cccc3c2nc(-c2ccc(N(C)C)cc2)n3C)ccc1-n1cnc(C)c1` [Compound 197], for which the half-inhibitory concentration (IC50) in the test with Aβ42 [2] is 35 nM; with Aβtotal [4], 8230 nM.
For `COc1nc(Nc2cccc3c2nc(-c2cccc(C#N)c2)n3C)ccc1-n1cnc(C)c1` [Compound 198], in that order: 48 nM and more than 10000 nM.
The like results for `COc1cc(Nc2cc(C3CC3)nc3c2nc(-c2ccc(F)cc2)n3C)ccc1-n1cnc(C)n1` [Compound 199] were, in that order, 13 nM and more than 10000 nM.
With `COc1cc(Nc2ccnc3c2nc(-c2ccc(F)cc2)n3C)ccc1-n1cnc(C)n1` [Compound 200], the IC50 in the test with Aβ42 [2] is 40 nM; with Aβtotal [4] it was more than 10000 nM.
For `COc1nc(Nc2ccnc3c2nc(-c2ccc(F)cc2)n3C)ccc1-n1cnc(C)c1` [Compound 201], in that order: 4 nM and more than 10000 nM.
The like results for `COc1nc(Nc2cc(C)nc3c2nc(-c2ccc(F)cc2)n3C)ccc1-n1cnc(C)c1` [Compound 203] were, in that order, 4 nM and more than 10000 nM.
Regarding `COc1cc(Nc2ccc(-n3cnc(C)c3)c(F)c2)c2nc(-c3ccc(F)cc3)n(C)c2n1` [Compound 204], the IC50 in the test on Aβ42 [2] was 14 nM; in the test on Aβtotal [4], more than 10000 nM.
The like results for `Cc1cn(-c2ccc(Nc3ccnc4c3nc(-c3ccc(F)cc3)n4C)cc2F)cn1` [Compound 205] were, in that order, 63 nM and more than 10000 nM.
